“And” between values parts separate entries of the source, which are not always exact repeats. Identical values can stand only once. Like-named read-outs stand apart in the source and are kept apart here. Marks after values point to notes of the source that are not given here.
Assays:
[1] = human, in vivo
[2] = human, in vivo; remark: listed apart in the source
[3] = buprenorphine, individual patient

CO[C@@]12CC[C@@]3(C[C@@H]1[C@](C)(O)C(C)(C)C)[C@H]1Cc4ccc(O)c5c4[C@@]3(CCN1CC1CC1)[C@H]2O5 [buprenorphine]
Cave from Day 21 to removal, higher in higher dose group as compared with lower dose group [1]: 93% | Cmax, average, higher in higher dose group as compared with lower dose group [1]: 62% | reduction in buprenorphine concentrations from Day 17 to removal [1]: ≤ 50% | shortest half-life during the plateau phase [1]: 25 weeks | time to reach plateau phase of buprenorphine concentrations [1]: ≤ 21 days | Renal clearance [2]: 0.0552 mL/min | Model predicted concentration at removal ([3]; 2 implants): 263 pg/ml and 342 pg/ml (2×) and 252 pg/ml and 447 pg/ml and 338 pg/ml | Time from implant to reaching 2x last concentration ([3]; 2 implants): 180 h | α-Half Life ([3]; 2 implants): 115^b hours | β-Half Life ([3]; 2 implants): 3578^bc hours | γ-Half life ([3]; 2 implants): 120 weeks | Model predicted concentration at removal ([3]; 4 implants): 6.69 pg/mL and 5.33 pg/mL and 5.76 pg/mL and 5.01 pg/mL and 7.78 pg/mL | Time from implant to reaching 2x last concentration ([3]; 4 implants): 690 h and 710 h | β-Half Life ([3]; 4 implants): 12.0 h and 16.0 h and 24.0 h

— patent publication US20140271766A1 (priority 2013, published 2014)
